Source: PubChem BioAssay (NCI)
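Values below derive from 48-hour exposures of cells grown in 96-well plates, with endpoints linearly interpolated between the two concentrations bracketing the appropriate inhibition level. GI50 = concentration required for 50% inhibition of growth. TGI denotes the concentration required for complete inhibition of growth.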

Legend:
Assay in all cases: DTP human tumour cell line panel, 48 h
NCI/ADR-RES ovarian = test system: NCI/ADR-RES ovarian
UACC-62 melanoma = test system: UACC-62 melanoma
DU-145 prostate = test system: DU-145 prostate
MOLT-4 leukemia = test system: MOLT-4 leukemia
K-562 leukemia = test system: K-562 leukemia
NCI-H23 lung = test system: NCI-H23 lung
SK-MEL-28 melanoma = test system: SK-MEL-28 melanoma
OVCAR-8 ovarian = test system: OVCAR-8 ovarian
HOP-62 NSCLC = test system: HOP-62 NSCLC
CAKI-1 renal = test system: CAKI-1 renal

Structure (SMILES) | GI50 (NCI/ADR-RES ovarian) [µM] | TGI (NCI/ADR-RES ovarian) [µM] | GI50 (UACC-62 melanoma) [µM] | TGI (UACC-62 melanoma) [µM] | GI50 (DU-145 prostate) [µM] | TGI (DU-145 prostate) [µM] | GI50 (MOLT-4 leukemia) [µM] | TGI (MOLT-4 leukemia) [µM] | GI50 (K-562 leukemia) [µM] | TGI (K-562 leukemia) [µM] | GI50 (NCI-H23 lung) [µM] | TGI (NCI-H23 lung) [µM] | GI50 (SK-MEL-28 melanoma) [µM] | TGI (SK-MEL-28 melanoma) [µM] | GI50 (OVCAR-8 ovarian) [µM] | TGI (OVCAR-8 ovarian) [µM] | GI50 (HOP-62 NSCLC) [µM] | TGI (HOP-62 NSCLC) [µM] | GI50 (CAKI-1 renal) [µM] | TGI (CAKI-1 renal) [µM]
CCOC(=O)c1cc(-c2ccccc2)[nH]c1N/N=C/c1ccc(Cl)cc1 | 52.6 | > 100 | 49.7 | > 100 | > 100 | > 100 | 16.8 | > 100 | 28.4 | > 100 | 79.1 | > 100 | > 100 | > 100 | > 100 | > 100 | 87.3 | > 100 | 30.9 | > 100
O=C(NO)[C@@H](Cc1ccccc1)NS(=O)(=O)c1ccc(-c2ccccc2)cc1 | > 25 | > 25 | > 25 | > 25 | 11.1 | > 25 | 9.43 | > 25 | 10.1 | > 25 | > 25 | > 25 | > 25 | > 25 | 22.5 | > 25 | 18.1 | > 25 | 9.6 | > 25
CC(=O)O[C@H]1[C@@H]2OC(=O)C(CSc3ccccc3)[C@@H]2C[C@H]2O[C@]2(C)CC/C=C(\C)CCC[C@@H]1C (some centres undefined) | 2.99 | 32 | 4.65 | 14.8 | 2.34 | 5.6 | 2.52 | > 23.8 | 2.15 | > 24.6 | 3.51 | 22.2 | 1.91 | 3.93 | 3.77 | 29.5 | 9.29 | 32.5 | 1.69 | 6.34
CCN(CC)C(=S)SCN1C(=O)c2ccccc2S1(=O)=O | > 44.3 | > 64.9 | 3.02 | – | 29.4 | > 100 | 23.9 | > 100 | 24 | > 100 | 45.5 | > 91.1 | 31 | > 85.1 | > 57.9 | > 100 | 39.3 | > 100 | > 70.5 | > 100
O=C1C2CCN(CC2)C1(CO)CO | – | 60 | – | 42.1 | – | 31.6 | – | 23.6 | – | 54.5 | – | 61.9 | – | 44.5 | – | 74.7 | – | > 100 | – | 40
CCCN(CCC)c1ccc(/C=N/NC(=O)c2cccnc2)c(OC)c1 | 24.8 | > 100 | 16.2 | 45.6 | 27.8 | 94.8 | 22.8 | 51.7 | 22.2 | > 100 | 26.1 | > 100 | 26.6 | 98 | 29.9 | > 100 | 31.3 | > 100 | 21.5 | 93.2
N#Cc1c(N)nc(N2CCOCC2)c(C#N)c1-c1ccccn1 | > 100 | > 100 | 0.0342 | 0.482 | > 100 | > 100 | > 100 | > 100 | > 100 | > 100 | > 100 | > 100 | > 100 | > 100 | > 100 | > 100 | > 100 | > 100 | > 100 | > 100
O=C(O)c1c(=O)cccc2ssc12 | 2.4 | 5.68 | 2.09 | 4.59 | 1.92 | 3.73 | 2.13 | 5.11 | 2.04 | 5.51 | 1.75 | 3.45 | 1.69 | 3.25 | 1.76 | 3.18 | 1.81 | 3.44 | 12 | 24.6
Cc1cn2c(/C=N/N=C(N)N)c(-c3ccccn3)nc2s1 | > 27.1 | > 67.8 | 15.9 | 31.6 | 10.5 | 37.7 | 8.67 | > 100 | 19.5 | > 100 | 6.65 | 16.7 | 11.6 | 36.9 | 13.9 | > 56.2 | 10.5 | 26.9 | 20.8 | 41.7
CN(Cc1cc(Br)cc(Br)c1O)Cc1c(O)ccc2ccccc12 | – | > 100 | – | 41.3 | – | 40.6 | – | 30 | – | 51.9 | – | 50.6 | – | 44.2 | – | 60 | – | 38.9 | – | 31.5
